From US20110214196A1, “DEVELOPMENT OF HERBICIDE-RESISTANT GRASS SPECIES” (University of Georgia Research Foundation, priority 2008, published 2011)

Experiments:
[1] = tested on: Large crabgrass (Digitaria sanguinalis) F2; assay: Large crabgrass dose response study, F2 from self-pollinated surviving plants; assay type: in vivo
Procedure: Plants were grown from seed collected from a turfgrass sod farm near where sethoxydim had been continuously used for twelve years. Seeds were planted in 250 mL styrofoam cups with a potting mixture of pure sand in a glasshouse with supplemental lighting (300 uE/m2/s) and 30/25 temperature. Plants were watered once daily and fertilized once a week. Large crabgrass plants were treated with herbicides when 3-5 cm tall in a dose response study. Four herbicides (sethoxydim, fluazifop, clethodim, and pinoxaden) were applied at […]. Plant injury was observed 7 and 14 DAT. The experimental design consisted of a randomized complete block design with three replications. The experiment was replicated in time.
In response to all four herbicides, the plants initially illutrated typical ACCase symptomology, but recovered in 7-14 days after treatment (DAT). […] Seeds from self-pollinated surviving large crabgrass plants were collected and analyzed using the same dose response design as state before. […] The ED50 was approximately 10 times greater for the resistant (R) population than that for the wild type (S) population.

[2] = tested on: original parental line, Mauna Kea (PT); assay: Whole plant greenhouse dose-response, Poast herbicide (Example 9); assay type: in vivo, seashore paspalum (Paspalum vaginatum)
Description: (§1) A second greenhouse experiment was initiated to evaluate SR plants regenerated from a second sethoxydim-resistant cell line, Line B, for sethoxidim resistance at the whole plant level. In the previous experiment (Example 8), minor injury occurred on Line A at higher concentrations of Segment™ sethoxydim herbicide. These injury symptoms were more indicative of surfactant injury rather than sethoxydim injury. […] Plants were transplanted to Cone-tainers™ measuring 4×14 cm and tapering to 1 cm (Stuewe and Sons Inc., Corvallis, Oreg.) containing a 1:1 mix of Fafard® 3B mix and sand and placed on benches under sodium lights in a greenhouse with a 16-h photoperiod maintained at 27/32° C. day/night for approximately two weeks prior to application of herbicide treatments.
(§2) Each of the four genotypes (Line A, Line B, PT and TCC) were treated with 0, 50, 100, 200, 400, 800, 1600, 3200 and 6400 g ai ha^−1 rates of sethoxydim using Poast™ herbicide (BASF Corp., Florham Park, N.J.). All herbicide rates were applied at a spray volume of 1871 ha^−1 in an experimental spray chamber, and after drying, the plants were returned to the greenhouse bench and maintained under the conditions described above. Visual estimates of crop injury were recorded at 16, 21, and 28 d after treatment (DAT) using a scale of 0 to 100, where 0 equals no injury and 100 equals complete death. The experiment was a four by nine factorial with four genotypes and nine herbicide rates. Treatments were arranged in a randomized complete block design. Four replications were used for all four genotypes. Data were first analyzed using a two-way analysis of variance (SAS, 2008) and subsequently analyzed within herbicide rate. Differences among genotype means at each herbicide rate were determined using Fisher's Least Significant Difference (LSD).

[3] = tested on: Mauna Kea line regenerated from tissue culture (TCC); assay: as above; assay type: in vivo, seashore paspalum (Paspalum vaginatum); details: for injury score: TCC
Description: as §1, §2

[4] = tested on: sethoxydim-resistant Line B; assay: as above; assay type: in vivo, seashore paspalum (Paspalum vaginatum)
Description: as §1, §2

[5] = tested on: sethoxydim-resistant Line A; assay: as above; assay type: in vivo, seashore paspalum (Paspalum vaginatum)
Description: as §1, §2

[6] = tested on: Mauna Kea line regenerated from tissue culture (TC); assay: Whole plant greenhouse dose-response, Segment herbicide (Example 8); assay type: in vivo, seashore paspalum (Paspalum vaginatum)
Procedure: Sethoxydim-resistant plants regenerated from a sethoxydim-resistant cell line, Line A, were tested for resistance at the whole plant level in a dose-response experiment conducted in a greenhouse. In this experiment, Line A was compared to two herbicide-susceptible controls; the original parent line, Mauna Kea (PT); and a Mauna Kea line regenerated from tissue culture (TTC). Plants were transplanted to Cone-tainers™ measuring 4×14 cm and tapering to 1 cm (Stuewe and Sons Inc., Corvallis, Oreg.) containing a 1:1 mix of Fafard® 3B mix and sand and placed on benches under sodium lights in a greenhouse with a 16 hour photoperiod maintained at 27/32° C. day/night for two weeks prior to treatment applications. Each of the three genotypes, Line A, PT and TC were treated with 0, 50, 100, 200, 400, 800, 1600, and 3200 g ai ha^−1 rates of sethoxydim using Segment™ herbicide (BASF Corp., Florham Park, N.J.). All herbicide rates were applied at a spray volume of 1871 ha^−1 in an experimental spray chamber, and after drying, returned to the greenhouse bench and maintained under the conditions described above. Visual estimates of crop injury were recorded at 7, 14, 21, and 28 days after treatment (DAT) using a scale of 0 to 100, where 0 equals no injury and 100 equals complete death. At 42 days after treatment, the above ground portion of all plants was harvested, dried for 48 hours at a temperature of 50° C., and weighed to determine plant dry weight. Treatments were arranged in a randomized complete block design. Only two replications of TCC were possible due to limited plant materials; otherwise four replications were used for the other two genotypes (PT and Line A). Data were first analyzed using a two-way analysis of variance and subsequently analyzed within herbicide rate. Differences among genotype means at each herbicide rate were determined using Fisher's Least Significant Difference (LSD).

[7] = at rates of 400 g ai ha^−1, scale of 0 to 100
[8] = at rates of 1600 g ai ha^−1 or more
[9] = all rates up to 6400 g ai ha^−1

CCC/C(=N\OCC)C1=C(O)CC(CC(C)SCC)CC1=O (stereo not shown) [sethoxydim, 2-[1-(ethoxyimino)-butyl]-5-[2-(ethylthio)propyl]-3-hydroxy-2-cylohexen-1-one]
effective dose required to cause 50% injury (ED50) [1]: 179±4 g ai/ha | LD50 [2]: 720 g ai ha^−1 | injury score [2, 7]: ≥ 27 | injury score [2, 8]: ≥ 80% | LD50 ([3]; TC): 782 g ai ha^−1 | injury score [3, 7]: ≥ 27 | injury score [3, 8]: ≥ 80% | LD50 [4]: > 6400 g ai ha^−1 | maximum injury score observed [4, 9]: less than 20% | LD50 [5]: > 6400 g ai ha^−1 | maximum injury score observed [5, 9]: less than 20% | LD50 [6]: 276 g ai ha^1 | Plant Injury ([6]; 50 g a.i. ha^−1, 7 DAT): 4.5a % | Plant Injury ([6]; 50 g a.i. ha^−1, 14 DAT): 12.5ab % | Plant Injury ([6]; 50 g a.i. ha^−1, 21 DAT): 2.5a % | Plant Injury ([6]; 50 g a.i. ha^−1, 28 DAT): 0.0a % | Dry Weight ([6]; 50 g a.i. ha^−1, 42 DAT): 2.2a grams | Plant Injury ([6]; 100 g a.i. ha^−1, 7 DAT): 18.3b % | Plant Injury ([6]; 100 g a.i. ha^−1, 14 DAT): 25.0b % | Plant Injury ([6]; 100 g a.i. ha^−1, 21 DAT): 20.0a % | Plant Injury ([6]; 100 g a.i. ha^−1, 28 DAT): 7.5a % | Dry Weight ([6]; 100 g a.i. ha^−1, 42 DAT): 1.6ab grams | Plant Injury ([6]; 200 g a.i. ha^−1, 7 DAT): 16.7b % | Plant Injury ([6]; 200 g a.i. ha^−1, 14 DAT): 30.0b % | Plant Injury ([6]; 200 g a.i. ha^−1, 21 DAT): 40.0b % | Plant Injury ([6]; 200 g a.i. ha^−1, 28 DAT): 32.5b % | Dry Weight ([6]; 200 g a.i. ha^−1, 42 DAT): 0.4b grams | Plant Injury ([6]; 400 g a.i. ha^−1, 7 DAT): 30.8b % | Plant Injury ([6]; 400 g a.i. ha^−1, 14 DAT): 82.5b % | Plant Injury ([6]; 400 g a.i. ha^−1, 21 DAT): 80.0b % | Plant Injury ([6]; 400 g a.i. ha^−1, 28 DAT): 82.5b % | Dry Weight ([6]; 400 g a.i. ha^−1, 42 DAT): 0.1b grams | Plant Injury ([6]; 800 g a.i. ha^−1, 7 DAT): 60.0c % | Plant Injury ([6]; 800 g a.i. ha^−1, 14 DAT): 87.5b % | Plant Injury ([6]; 800 g a.i. ha^−1, 21 DAT): 95.0b % | Plant Injury ([6]; 800 g a.i. ha^−1, 28 DAT): 100.0c % | Dry Weight ([6]; 800 g a.i. ha^−1, 42 DAT): 0.1b grams | Plant Injury ([6]; 1600 g a.i. ha^−1, 7 DAT): 43.3b % | Plant Injury ([6]; 1600 g a.i. ha^−1, 14 DAT): 100.0c % | Plant Injury ([6]; 1600 g a.i. ha^−1, 21 DAT): 100.0c % | Plant Injury ([6]; 1600 g a.i. ha^−1, 28 DAT): 100.0b % | Dry Weight ([6]; 1600 g a.i. ha^−1, 42 DAT): 0.1b grams | Plant Injury ([6]; 3200 g a.i. ha^−1, 7 DAT): 46.7b % | Plant Injury ([6]; 3200 g a.i. ha^−1, 14 DAT): 100.0b % | Plant Injury ([6]; 3200 g a.i. ha^−1, 21 DAT): 100.0b % | Plant Injury ([6]; 3200 g a.i. ha^−1, 28 DAT): 100.0b % | Dry Weight ([6]; 3200 g a.i. ha^−1, 42 DAT): 0.1b grams | injury score ([6]; at rates equal to or greater than 800 g ai ha^−1): ≥ 80% | injury score ([6]; at rates of 200 g ai ha^−1, scale of 0 to 100): ≥ 30
